Literature values in US6071534A, “Multivesicular liposomes with controlled release of active agents encapsulated in the presence of a hydrochloride” (priority 1998, dated 2000).

Conditions: after IP, IV, IT, IA, IM or SC dose

Nc1ccn([C@@H]2O[C@H](CO)[C@@H](O)[C@@H]2O)c(=O)n1 [cytarabine, cytosine arabinoside]
half-life: very short
